Experiment: Transdermal flux / transdermal delivery from patch
Assay type: in vitro ADME
Details: enhancer at 3% in PIB adhesive

Structure (SMILES)	transdermal delivery from PIB
CCCCCCCCCCCCN1CCCCCC1=O [Azon]	double
CCCCCCCC/C=C\CCCCCCCC(=O)O [oleic acid]	double
